Laboratory results: patent US20210346357A1 (priority 2020, published 2021)
“And” between values parts separate entries of the source, which are not always exact repeats. Equal entries are not always repeated.

System: Symptomatic Acute Lung Injury Associated with COVID-19
Experiment: Phase 2 study Part 1, inhaled compound 1 in hospitalized COVID-19 patients
Settings: COVID-19 patients; for Modified Borg Dyspnea Score, Baseline, Mean: baseline value
[1] = 1 mg, matched D1 and D7 samples

CCc1cc(O)ccc1-c1ccc2c(-c3nc4c([nH]3)CN(C(C)C)[C@H](C(=O)N3CC(N(C)C)C3)C4)n[nH]c2c1 [Compound 1, (S)-(3-(dimethylamino)azetidin-1-yl)(2-(6-(2-ethyl-4-hydroxyphenyl)-1H-indazol-3-yl)-5-isopropyl-4,5,6,7-tetrahydro-3H-imidazo[4,5-c]pyridin-6-yl)methanone]
exposures provided by the loading dose on Day 1: consistent with pseudo steady-state | Clinical Status at Day 28: 1-Not hospitalized, no limitations on activities, number (1 mg): 5 | Clinical Status at Day 28: 1-Not hospitalized, no limitations on activities, percent (1 mg): 83.3% | Clinical Status at Day 28: 2-Not hospitalized, but with limitations on activities and/or requiring home oxygen, number (1 mg): 0 | Clinical Status at Day 28: 3-Hospitalized, not requiring supplemental oxygen, and no longer requiring ongoing medical care, number (1 mg): 0 | Clinical Status at Day 28: 4-Hospitalized, not requiring supplemental oxygen, but requiring ongoing medical care, number (1 mg): 0 | Clinical Status at Day 28: 5-Hospitalized, requiring supplemental oxygen, number (1 mg): 0 | Clinical Status at Day 28: 6-Hospitalized, on non-invasive ventilation or high-flow oxygen devices, number (1 mg): 0 | Clinical Status at Day 28: 7-Hospitalized, on invasive mechanical ventilation or extracorporeal membrane oxygenation, number (1 mg): 0 | Clinical Status at Day 28: 8-Death, number (1 mg): 1 | Clinical Status at Day 28: 8-Death, percent (1 mg): 16.7% | Still in Hospital at Day 28, number (1 mg): 0 | Time to Hospital Discharge (Days) Median (1 mg): 18.5 days | Modified Borg Dyspnea Score, Baseline, Mean (1 mg group): 6.17 | Modified Borg Dyspnea Score Change from Baseline, Mean (1 mg, Day 2): 0.33 | Modified Borg Dyspnea Score Change from Baseline, Mean (1 mg, Day 3): −0.33 | Modified Borg Dyspnea Score Change from Baseline, Mean (1 mg, Day 4): −0.83 | Modified Borg Dyspnea Score Change from Baseline, Mean (1 mg, Day 5): −1.17 | Modified Borg Dyspnea Score Change from Baseline, Mean (1 mg, Day 6): −1.33 | Hospital Discharge, number (1 mg, Day 7): 0 | Modified Borg Dyspnea Score Change from Baseline, Mean (1 mg, Day 7): −1.50 | Hospital Discharge, number (1 mg, Day 14): 2 | Hospital Discharge, percent (1 mg, Day 14): 33.3% | Hospital Discharge, number (1 mg, Day 21): 3 | Hospital Discharge, percent (1 mg, Day 21): 50.0% | # Subjects Respiratory Failure-Free, percent (1 mg, Day 28): 83.3% | Hospital Discharge, number (1 mg, Day 28): 5 | Hospital Discharge, percent (1 mg, Day 28): 83.3% | Proportion of Subjects Alive and Respiratory Failure-free (1 mg, Day 28): 83.3% | Proportion of Subjects Alive and Respiratory Failure-free, number (1 mg, Day 28): 5 | # Subjects Respiratory Failure-Free (1 mg, Day 28, number of subjects): 5 | IFN-γ, within-group percent difference in geometric mean from baseline [1]: −46.12% | IL-6, within-group percent difference in geometric mean from baseline [1]: 29.45% | IL-8, within-group percent difference in geometric mean from baseline [1]: −16.78% | IL-10, within-group percent difference in geometric mean from baseline [1]: −26.59% | IP-10, within-group percent difference in geometric mean from baseline [1]: −20.65% | MCP-1, within-group percent difference in geometric mean from baseline [1]: 13.90% | MDC, within-group percent difference in geometric mean from baseline [1]: −55.03% | RAGE, within-group percent difference in geometric mean from baseline [1]: −14.22% | TARC, within-group percent difference in geometric mean from baseline [1]: −57.21% | hsCRP, within-group percent difference in geometric mean from baseline [1]: −34.85% | Time to Hospital Discharge (Days) Mean ± SD (1 mg, still hospitalized or died = 28 days): 18.83 ± 6.795 days | # Subjects Alive, percent (1 mg, through Day 28): 83.3% | Died (All-Cause Mortality), percent (1 mg, through Day 28): 16.7% | # Subjects Alive (1 mg, through Day 28, number of subjects): 5 | Clinical Status at Day 28: 1-Not hospitalized, no limitations on activities, number (3 mg): 5 | Clinical Status at Day 28: 1-Not hospitalized, no limitations on activities, percent (3 mg): 83.3% | Clinical Status at Day 28: 2-Not hospitalized, but with limitations on activities and/or requiring home oxygen, number (3 mg): 0 | Clinical Status at Day 28: 3-Hospitalized, not requiring supplemental oxygen, and no longer requiring ongoing medical care, number (3 mg): 0 | Clinical Status at Day 28: 4-Hospitalized, not requiring supplemental oxygen, but requiring ongoing medical care, number (3 mg): 1 | Clinical Status at Day 28: 4-Hospitalized, not requiring supplemental oxygen, but requiring ongoing medical care, percent (3 mg): 16.7% | Clinical Status at Day 28: 5-Hospitalized, requiring supplemental oxygen, number (3 mg): 0 | Clinical Status at Day 28: 6-Hospitalized, on non-invasive ventilation or high-flow oxygen devices, number (3 mg): 0 | Clinical Status at Day 28: 7-Hospitalized, on invasive mechanical ventilation or extracorporeal membrane oxygenation, number (3 mg): 0 | Clinical Status at Day 28: 8-Death, number (3 mg): 0 | Still in Hospital at Day 28, number (3 mg): 0 | Time to Hospital Discharge (Days) Median (3 mg): 17.0 days | Modified Borg Dyspnea Score, Baseline, Mean (3 mg group): 6.71 | Modified Borg Dyspnea Score Change from Baseline, Mean (3 mg, Day 2): −0.43 | Modified Borg Dyspnea Score Change from Baseline, Mean (3 mg, Day 3): −1.00 | Modified Borg Dyspnea Score Change from Baseline, Mean (3 mg, Day 4): −0.50 | Modified Borg Dyspnea Score Change from Baseline, Mean (3 mg, Day 5): −1.20 | Modified Borg Dyspnea Score Change from Baseline, Mean (3 mg, Day 6): −1.20 | Hospital Discharge, number (3 mg, Day 7): 1 | Hospital Discharge, percent (3 mg, Day 7): 14.3% | Modified Borg Dyspnea Score Change from Baseline, Mean (3 mg, Day 7): −1.80 | Hospital Discharge, number (3 mg, Day 14): 2 | Hospital Discharge, percent (3 mg, Day 14): 28.6% | Hospital Discharge, number (3 mg, Day 21): 6 | Hospital Discharge, percent (3 mg, Day 21): 86% and 85.7% | # Subjects Respiratory Failure-Free, percent (3 mg, Day 28): 85.7%
